Source: ChEMBL document CHEMBL5131381, “Design, synthesis, and mechanistic investigations of phenylalanine derivatives containing a benzothiazole moiety as HIV-1 capsid inhibitors with improved metabolic stability” (Eur J Med Chem, 2022)
Activity calls are given as the source filed them. The calls are words filed in the database; no cut-off is given here.

Columns and labels:
[1] = test system: Human immunodeficiency virus 1; assay: Antiviral activity against HIV-1 3B infected in human MT4 cells assessed as protection against virus-induced cytopathic effect by MTT assay; type: functional, organism-based; details: Human immunodeficiency virus 1, 3B
[2] = test system: MT4; assay: Cytotoxicity against mock infected human MT4 cells by MTT assay; type: toxicity, cell-based
[3] = Metabolic stability in human plasma assessed as parent compound remaining measured after 120 mins by LC-MS/MS analysis; type: ADME, cell-free; details: 2 h
[4] = in vitro; details: human, liver microsomes
[5] = test system: Human immunodeficiency virus 1; assay: Antiviral activity against HIV-1 NL4-3 Env-deficient pseudotype virus infected in U87/CD4/CCR5 cells assessed as reduction in viral infection in early stage measured after 48 hrs by luciferase activity based single-round infection assay; type: functional, organism-based
[6] = test system: Human immunodeficiency virus 1; assay: Antiviral activity against HIV-1 NL4-3 Env-deficient pseudotype virus infected in U87/CD4/CCR5 cells assessed as reduction in viral infection in late stage measured after 48 hrs by luciferase activity based single-round infection assay; type: functional, organism-based

| Structure (SMILES) | EC50 [1] [µM] | CC50 [2] [µM] | further results |
| --- | --- | --- | --- |
| CN(C(=O)[C@H](Cc1ccccc1)NC(=O)c1cccc(C(=O)Nc2ccc(OC(F)(F)F)cc2)c1)c1ccc2scnc2c1 | 34.9 | 118 | – |
| CN(C(=O)[C@H](Cc1ccccc1)NC(=O)c1cccc(C(=O)Nc2ccc(NC(=O)OC(C)(C)C)cc2)c1)c1ccc2scnc2c1 | > 2.23 | 2.23 | – |
| CC(=O)c1ccc(NC(=O)c2cccc(C(=O)N[C@@H](Cc3ccccc3)C(=O)N(C)c3ccc4scnc4c3)c2)cc1 | > 165 | 165 | – |
| C#CCNC(=O)c1cccc(C(=O)N[C@@H](Cc2ccccc2)C(=O)N(C)c2ccc3scnc3c2)c1 | 5.02 | – | Stability [3]: Stable |
| C[C@]12CC[C@H]3[C@@H](CCC4=CC(=O)CC[C@@]43C)[C@@H]1CC[C@@H]2O [TESTOSTERONE] | – | – | microsomal CLint [4]: 82.8 µL/min/mg |
| CN(C(=O)[C@H](Cc1ccccc1)NC(=O)c1cccc(C(=O)N2CCN(C(=O)OC(C)(C)C)CC2)c1)c1ccc2scnc2c1 | 13.5 | 93.9 | – |
| CN(C(=O)[C@H](Cc1ccccc1)NC(=O)c1cccc(C(=O)Nc2ccc(C(F)(F)F)cc2)c1)c1ccc2scnc2c1 | ≥ 39.5 | 88.2 | – |
| CN(C(=O)[C@H](Cc1ccccc1)NC(=O)c1cccc(C(=O)Nc2ccccc2NC(=O)OC(C)(C)C)c1)c1ccc2scnc2c1 | – | > 193 | – |
| CN(C(=O)[C@H](Cc1ccccc1)NC(=O)c1cccc(C(=O)Nc2cccc(F)c2)c1)c1ccc2scnc2c1 | > 226 | > 226 | – |
| CN(C(=O)[C@H](Cc1ccccc1)NC(=O)c1cccc(C(=O)Nc2ccccc2N)c1)c1ccc2scnc2c1 | > 25.4 | 25.4 | – |
| Cc1ccc(NC(=O)c2cccc(C(=O)N[C@@H](Cc3ccccc3)C(=O)N(C)c3ccc4scnc4c3)c2)cc1 | 41.1 | > 228 | – |
| CN(C(=O)[C@H](Cc1ccccc1)NC(=O)c1cccc(C(=O)Nc2ccncc2)c1)c1ccc2scnc2c1 | ≥ 41.4 | 37.6 | – |
| COCCNC(=O)c1cccc(C(=O)N[C@@H](Cc2ccccc2)C(=O)N(C)c2ccc3scnc3c2)c1 | 15.7 | 203 | – |
| CN(C(=O)[C@H](Cc1ccccc1)NC(=O)c1cccc(C(=O)Nc2ccc(Br)cc2)c1)c1ccc2scnc2c1 | ≥ 186 | > 204 | – |
| CN(C(=O)[C@H](Cc1ccccc1)NC(=O)c1cccc(C(=O)Nc2ccc(C#N)cc2)c1)c1ccc2scnc2c1 | 13.2 | > 224 | – |
| CN(C(=O)[C@H](Cc1ccccc1)NC(=O)c1cccc(C(=O)Nc2ccc(N)cc2)c1)c1ccc2scnc2c1 | 3.57 | – | Stability [3]: Stable; Activity [5]: Active; Activity [6]: Active |
| CN(C(=O)[C@H](Cc1ccccc1)NC(=O)c1cccc(C(=O)Nc2ccc(Cl)cc2)c1)c1ccc2scnc2c1 | > 220 | > 220 | – |
| CN(C(=O)[C@H](Cc1ccccc1)NC(=O)c1cccc(C(=O)Nc2ccccc2)c1)c1ccc2scnc2c1 | 22.4 | > 234 | – |
| CN(C(=O)[C@H](Cc1ccccc1)NC(=O)c1cccc(C(=O)Nc2ccccc2F)c1)c1ccc2scnc2c1 | 21.9 | 66.4 | – |
| COc1ccc(NC(=O)c2cccc(C(=O)N[C@@H](Cc3ccccc3)C(=O)N(C)c3ccc4scnc4c3)c2)cc1 | ≥ 205 | > 222 | – |
| CN(C(=O)[C@H](Cc1ccccc1)NC(=O)c1cccc(C(=O)NC2CCN(C(=O)OC(C)(C)C)CC2)c1)c1ccc2scnc2c1 | > 29.3 | 29.3 | – |
| CN(C(=O)[C@H](Cc1ccccc1)NC(=O)c1cccc(C(=O)Nc2ccc(F)cc2)c1)c1ccc2scnc2c1 | 31.8 | 54 | – |
| O=C(O)Cc1ccccc1Nc1c(Cl)cccc1Cl [DICLOFENAC] | – | – | microsomal CLint [4]: 372 µL/min/mg |
| CN(C(=O)[C@H](Cc1ccccc1)NC(=O)c1cccc(C(=O)Nc2cccc(NC(=O)OC(C)(C)C)c2)c1)c1ccc2scnc2c1 | > 193 | > 193 | – |
| CN(C(=O)[C@H](Cc1ccccc1)NC(=O)c1cccc(C(=O)Nc2cccc(N)c2)c1)c1ccc2scnc2c1 | 23.7 | 134 | – |
